From patent publication US4419123A, “Herbicidal 4-trifluoromethyl-3'-carbon-substituted-4'-substituted diphenyl ethers” (Rohm and Haas Company, priority 1981, dated 1983)

Assays:
[1] = Preemergence herbicidal activity (% control) against monocot weeds; format: in vivo; conditions: pre-emergence, 336 h, average, about two weeks after application, read-out: Herbicidal activity (% control), preemergence, monocots; for activity at 2241.7 g/ha: 2 lb./A.; for activity at 4483.4 g/ha: 4 lb./A.
Text: (§1) barnyardgrass (Echinochloa crusgalli) crabgrass (Digitaria spp.) nutsedge (Cyperus esculentus)
(§2) At 2 and 4 pounds per acre:
(§3) **Bermudagrass (Cynodon dactylon)
(§4) *downy brome (Bromus tectorum) foxtail (Setaria faberii)
(§5) Johnsongrass (Sorghum halepense) […]
(§6) quackgrass (Agropyron repens)
(§7) *ryegrass (Lolium perenne)
(§8) *wild oats (Avena factua)
(§9) *yellow millet (Panicum miliaceum)
(§10) The following test procedure is employed.

[2] = Postemergence herbicidal activity (% control) against monocot weeds; format: in vivo; conditions: post-emergence, 336 h, average, about two weeks after application, read-out: Herbicidal activity (% control), postemergence, monocots; for activity at 2241.7 g/ha: 2 lb./A.; for activity at 4483.4 g/ha: 4 lb./A.
Text: as §1, §2, §3, §4, §5, §6, §7, §8, §9, §10

corn = test: Crop tolerance (selective herbicidal activity), corn; format: in vivo
Description: as §10
(§11) Following the general test procedure of Example 37, diphenyl ethers are evaluated for significant tolerance (as shown by 50% or less kill of the test crop at levels of application which give more than 50% kill of many or all of the weeds of Example 73) towards some or all of the following common agronomic crops (not all compounds tested against all crops): alfalfa, snapbeans, corn, cotton, cucumbers, peanuts, rape, rice, safflower, soybeans, tomatoes, and wheat.

peanuts = test: Crop tolerance (selective herbicidal activity), peanuts; format: in vivo
Description: as §10, §11

rice = test: Crop tolerance (selective herbicidal activity), rice; format: in vivo
Description: as §10, §11

soybeans = test: Crop tolerance (selective herbicidal activity), soybeans; format: in vivo; conditions: preemergence applications
Description: as §10, §11

[3] = Preemergence herbicidal activity (% control) against dicot weeds; conditions: pre-emergence, 336 h; for activity at 2241.7 g/ha: read-out: Herbicidal activity (% control), preemergence, dicots, 2 lb./A., average, about two weeks after application; for activity at 4483.4 g/ha: read-out: Herbicidal activity (% control), preemergence, dicots, 4 lb./A., average, about two weeks after application
[4] = Postemergence herbicidal activity (% control) against dicot weeds; conditions: post-emergence, 336 h; for activity at 2241.7 g/ha: read-out: Herbicidal activity (% control), postemergence, dicots, 2 lb./A., average, about two weeks after application; for activity at 4483.4 g/ha: read-out: Herbicidal activity (% control), postemergence, dicots, 4 lb./A., average, about two weeks after application
wheat = test: Crop tolerance (selective herbicidal activity), wheat; format: in vivo
Description: as §10, §11

[5] = postemergence applications or applications on transplanted rice

| Compound | activity at 2241.7 g/ha [1] [%] | activity at 4483.4 g/ha [1] [%] | activity at 2241.7 g/ha [2] [%] | activity at 4483.4 g/ha [2] [%] | Tolerance to corn (corn; postemergence applications) | Tolerance to peanuts (peanuts; postemergence applications) | Tolerance to peanuts (peanuts; preemergence applications) | Tolerance to rice (rice; [5]) | Tolerance to soybeans (soybeans) | activity at 2241.7 g/ha [3] [%] | activity at 4483.4 g/ha [3] [%] | activity at 2241.7 g/ha [4] [%] | activity at 4483.4 g/ha [4] [%] | Tolerance to wheat (wheat; postemergence applications) | Tolerance to corn (corn; preemergence applications) | Tolerance to rice (rice; preemergence applications) | Tolerance to wheat (wheat; preemergence applications) |
| --- | --- | --- | --- | --- | --- | --- | --- | --- | --- | --- | --- | --- | --- | --- | --- | --- | --- |
| CC(Oc1cc(Oc2ccc(C(F)(F)F)cc2Cl)ccc1[N+](=O)[O-])C(=O)N(C)C (centres unmarked) [Example 53] | 98 | 98 | 81 | 79 | Tolerance (significant tolerance (as shown by 50% or less kill of the test crop at levels of application which give more than 50% kill of many or all of the weeds of Example 73)) | Tolerance (significant tolerance (as shown by 50% or less kill of the test crop at levels of application which give more than 50% kill of many or all of the weeds of Example 73)) | Tolerance (significant tolerance (as shown by 50% or less kill of the test crop at levels of application which give more than 50% kill of many or all of the weeds of Example 73)) | Tolerance (significant tolerance (as shown by 50% or less kill of the test crop at levels of application which give more than 50% kill of many or all of the weeds of Example 73)) | Tolerance (significant tolerance (as shown by 50% or less kill of the test crop at levels of application which give more than 50% kill of many or all of the weeds of Example 73)) | 100 | 83 | 100 | 100 |  |  |  |  |
| O=C(O)c1cc(Oc2ccc(C(F)(F)F)cc2Cl)ccc1[N+](=O)[O-] [Example 48, 2-Chloro-α,α,α-trifluoro-p-tolyl-3-carboxy-4-nitrophenylether] | 100 | 99 | 84 | 75 |  | Tolerance (significant tolerance (as shown by 50% or less kill of the test crop at levels of application which give more than 50% kill of many or all of the weeds of Example 73)) | Tolerance (significant tolerance (as shown by 50% or less kill of the test crop at levels of application which give more than 50% kill of many or all of the weeds of Example 73)) | Tolerance (significant tolerance (as shown by 50% or less kill of the test crop at levels of application which give more than 50% kill of many or all of the weeds of Example 73)) | Tolerance (significant tolerance (as shown by 50% or less kill of the test crop at levels of application which give more than 50% kill of many or all of the weeds of Example 73)) | 100 | 97 | 97 | 100 | Tolerance (significant tolerance (as shown by 50% or less kill of the test crop at levels of application which give more than 50% kill of many or all of the weeds of Example 73)) |  |  |  |
| CNC(=O)C(C)Oc1cc(Oc2ccc(C(F)(F)F)cc2Cl)ccc1[N+](=O)[O-] (centres unmarked) [Example 52] | 98 | 79 | 93 | 87 | Tolerance (significant tolerance (as shown by 50% or less kill of the test crop at levels of application which give more than 50% kill of many or all of the weeds of Example 73)) |  | Tolerance (significant tolerance (as shown by 50% or less kill of the test crop at levels of application which give more than 50% kill of many or all of the weeds of Example 73)) |  | Tolerance (significant tolerance (as shown by 50% or less kill of the test crop at levels of application which give more than 50% kill of many or all of the weeds of Example 73)) | 75 | 67 | 100 | 100 |  | Tolerance (significant tolerance (as shown by 50% or less kill of the test crop at levels of application which give more than 50% kill of many or all of the weeds of Example 73)) | Tolerance (significant tolerance (as shown by 50% or less kill of the test crop at levels of application which give more than 50% kill of many or all of the weeds of Example 73)) |  |
| O=[N+]([O-])c1ccc(Oc2ccc(C(F)(F)F)cc2Cl)cc1OCC(F)(F)F [Example 11] | 88 | 81 | 100 | 82 |  |  |  | Tolerance (significant tolerance (as shown by 50% or less kill of the test crop at levels of application which give more than 50% kill of many or all of the weeds of Example 73)) | Tolerance (significant tolerance (as shown by 50% or less kill of the test crop at levels of application which give more than 50% kill of many or all of the weeds of Example 73)) | 99 | 98 |  | 99 |  | Tolerance (significant tolerance (as shown by 50% or less kill of the test crop at levels of application which give more than 50% kill of many or all of the weeds of Example 73)) |  |  |
| CCOc1cc(Oc2c(Cl)cc(C(F)(F)F)cc2Cl)ccc1[N+](=O)[O-] [Example 56, 2,6-Dichloro-α,α,α-trifluoro-p-tolyl-3-ethoxy-4-nitrophenyl ether] | 100 | 91 | 100 | 99 | Tolerance (significant tolerance (as shown by 50% or less kill of the test crop at levels of application which give more than 50% kill of many or all of the weeds of Example 73)) |  | Tolerance (significant tolerance (as shown by 50% or less kill of the test crop at levels of application which give more than 50% kill of many or all of the weeds of Example 73)) |  |  |  | 83 | 99 | 100 |  |  |  | Tolerance (significant tolerance (as shown by 50% or less kill of the test crop at levels of application which give more than 50% kill of many or all of the weeds of Example 73)) |
| Cc1cc(Oc2ccc(C(F)(F)F)cc2Cl)ccc1[N+](=O)[O-] [Example 36] | 100 | 93 | 94 | 87 | Tolerance (significant tolerance (as shown by 50% or less kill of the test crop at levels of application which give more than 50% kill of many or all of the weeds of Example 73)) | Tolerance (significant tolerance (as shown by 50% or less kill of the test crop at levels of application which give more than 50% kill of many or all of the weeds of Example 73)) | Tolerance (significant tolerance (as shown by 50% or less kill of the test crop at levels of application which give more than 50% kill of many or all of the weeds of Example 73)) |  |  |  | 100 | 98 | 100 | Tolerance (significant tolerance (as shown by 50% or less kill of the test crop at levels of application which give more than 50% kill of many or all of the weeds of Example 73)) |  |  |  |
| COC(=O)C(C)Oc1cc(Oc2ccc(C(F)(F)F)cc2Cl)ccc1[N+](=O)[O-] (centres unmarked) [Example 50] | 98 | 90 | 100 | 97 |  |  | Tolerance (significant tolerance (as shown by 50% or less kill of the test crop at levels of application which give more than 50% kill of many or all of the weeds of Example 73)) |  | Tolerance (significant tolerance (as shown by 50% or less kill of the test crop at levels of application which give more than 50% kill of many or all of the weeds of Example 73)) | 100 | 83 |  | 100 |  |  |  | Tolerance (significant tolerance (as shown by 50% or less kill of the test crop at levels of application which give more than 50% kill of many or all of the weeds of Example 73)) |
